Results from patent US20250195511A1, “INDAZOLE DERIVATIVES USEFUL AS INHIBITORS OF NOD-LIKE RECEPTOR PROTEIN 3” (Merck Sharp & Dohme LLC, priority 2023, published 2025).

test system: NLRP3 inflammasome; assay: NLRP3 inflammasome activation: ASC-SPECK formation in gramicidin-stimulated THP-1 cells; format: cell-based; details: Homo sapiens, THP-1, inhibition of ASC SPECK formation; PMA-treated human monocytic THP-1 cells, compound 1 h before 12.5 μg/ml gramicidin, 3-hour treatment
How it was run: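 Undifferentiated human THP-1 cells primed overnight with 10 ng/ml PMA, then given compounds 1 h before 12.5 μg/ml gramicidin for 3 h at 37° C in RPMI with 0.01% BSA. Fixed cells immunostained for ASC with DRAQ5 nuclear counterstain; DRAQ5-positive cells with ASC specks counted by high-content imaging; EC50 from curve fitting.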

Row | Structure (SMILES) | EC50 [µM]
1 | Cc1cc(C(F)(F)F)cc(O)c1-c1cnc2cn([C@H]3CCS(=O)(=O)C3)nc2n1 [Example 31, 2-[2-[(3S)-1,1-dioxothiolan-3-yl]pyrazolo[3,4-b]pyrazin-6-yl]-3-methyl-5-(trifluoromethyl)phenol] | 0.265
2 | Cc1cc(C(F)(F)F)cc(O)c1-c1cnc2cn([C@@H]3COC[C@H]3O)nc2n1 [Example 33, (3S,4R)-4-[6-[2-hydroxy-6-methyl-4-(trifluoromethyl)phenyl]pyrazolo[3,4-b]pyrazin-2-yl]tetrahydrofuran-3-ol] | 0.071
3 | COCC12CC(n3cc4ncc(-c5c(C)cc(C(F)(F)F)cc5O)nc4n3)(C1)C2 [Example 37, 2-[2-[3-(methoxymethyl)-1-bicyclo[1.1.1]pentanyl]pyrazolo[3,4-b]pyrazin-6-yl]-3-methyl-5-(trifluoromethyl)phenol] | 0.22
4 | COC12CC(n3cc4ncc(-c5c(C)cc(C(F)(F)F)cc5O)nc4n3)(C1)C2 [Example 38, 2-[2-(3-methoxy-1-bicyclo[1.1.1]pentanyl)pyrazolo[3,4-b]pyrazin-6-yl]-3-methyl-5-(trifluoromethyl)phenol] | 0.141
5 | Cc1cc(C(F)(F)F)cc(O)c1-c1cnc2cn(C34CC(C(F)F)(C3)C4)nc2n1 [Example 39, 2-[2-[3-(difluoromethyl)-1-bicyclo[1.1.1]pentanyl]pyrazolo[3,4-b]pyrazin-6-yl]-3-methyl-5-(trifluoromethyl)phenol] | 0.09
6 | Cc1cc(C(F)(F)F)cc(O)c1-c1cnc2cn([C@H]3CC[C@H](C#N)CC3)nc2n1 [Example 40, (1R,4R)-4-(6-(2-hydroxy-6-methyl-4-(trifluoromethyl)phenyl)-2H-pyrazolo[3,4-b]pyrazin-2-yl)cyclohexane-1-carbonitrile] | 0.081
7 | Cc1cc(C(F)(F)F)cc(O)c1-c1cnc2cn(C34COC(CO)(C3)C4)nc2n1 [Example 41, 2-[2-[1-(hydroxymethyl)-2-oxabicyclo[2.1.1]hexan-4-yl]pyrazolo[3,4-b]pyrazin-6-yl]-3-methyl-5-(trifluoromethyl)phenol] | 0.078
8 | Cc1cc(C(F)(F)F)cc(O)c1-c1cnc2cn([C@H]3CC[C@@H](O)CC3)nc2n1 [Example 44, 2-(2-((1S,4S)-4-hydroxycyclohexyl)-2H-pyrazolo[3,4-b]pyrazin-6-yl)-3-methyl-5-(trifluoromethyl)phenol] | 0.121
9 | Cc1cc(C(F)(F)F)cc(O)c1-c1cnc2cn(C3CC4CCC(C3)O4)nc2n1 (stereo not drawn) [Example 45, 3-methyl-2-[2-(8-oxabicyclo[3.2.1]octan-3-yl)pyrazolo[3,4-b]pyrazin-6-yl]-5-(trifluoromethyl)phenol] | 0.07
10 | Cc1cc(C(F)(F)F)cc(O)c1-c1cnc2cn(C34CC(CC#N)(C3)C4)nc2n1 [Example 46, 2-[3-[6-[2-hydroxy-6-methyl-4-(trifluoromethyl)phenyl]pyrazolo[3,4-b]pyrazin-2-yl]-1-bicyclo[1.1.1]pentanyl]acetonitrile] | 0.213
11 | Cc1cc(C(F)(F)F)cc(O)c1-c1cnc2cn([C@@H]3C[C@H]3C)nc2n1 [Example 50, 3-methyl-2-[2-[(1R,2R)-2-methylcyclopropyl]pyrazolo[3,4-b]pyrazin-6-yl]-5-(trifluoromethyl)phenol] | 0.103
12 | Cc1cc(C(F)(F)F)cc(O)c1-c1cnc2cn(C3(C)CCOCC3)nc2n1 [Example 51, 3-methyl-2-[2-(4-methyltetrahydropyran-4-yl)pyrazolo[3,4-b]pyrazin-6-yl]-5-(trifluoromethyl)phenol] | 0.142
13 | CCN1C[C@H](Cn2cc3ncc(-c4c(C)cc(C(F)(F)F)cc4O)nc3n2)OC1=O [Example 110, (R)-3-ethyl-5-((6-(2-hydroxy-6-methyl-4-(trifluoromethyl)phenyl)-2H-pyrazolo[3,4-b]pyrazin-2-yl)methyl)oxazolidin-2-one] | 0.168
14 | Cc1cc(C(F)(F)F)cc(O)c1-c1cnc2nn([C@H]3C[C@H](F)C3)nc2n1 [Example 121, 2-(2-((1R,3R)-3-fluorocyclobutyl)-2H-[1,2,3]triazolo[4,5-b]pyrazin-5-yl)-3-methyl-5-(trifluoromethyl)phenol] | 0.411

The remaining lines, values ahead:

Row | EC50 [µM] | Structure (SMILES)
15 | 0.034 | Cc1cc(C(F)(F)F)cc(O)c1-c1cnc2cn([C@H]3COC[C@@H]3O)nc2n1 [Example 32, (3R,4S)-4-[6-[2-hydroxy-6-methyl-4-(trifluoromethyl)phenyl]pyrazolo[3,4-b]pyrazin-2-yl]tetrahydrofuran-3-ol]
16 | 0.044 | Cc1cc(C(F)(F)F)cc(O)c1-c1cnc2cn([C@@H]3COCC[C@H]3O)nc2n1 [Example 34, (3R,4R)-3-[6-[2-hydroxy-6-methyl-4-(trifluoromethyl)phenyl]pyrazolo[3,4-b]pyrazin-2-yl]tetrahydropyran-4-ol]
17 | 0.037 | Cc1cc(C(F)(F)F)cc(O)c1-c1cnc2cn([C@H]3COCC[C@@H]3O)nc2n1 [Example 35, (3S,4S)-3-[6-[2-hydroxy-6-methyl-4-(trifluoromethyl)phenyl]pyrazolo[3,4-b]pyrazin-2-yl]tetrahydropyran-4-ol]
18 | 0.018 | Cc1cc(C(F)(F)F)cc(O)c1-c1cnc2cn([C@H]3C[C@H](C#N)C3)nc2n1 [Example 36, (1R,3R)-3-(6-(2-hydroxy-6-methyl-4-(trifluoromethyl)phenyl)-2H-pyrazolo[3,4-b]pyrazin-2-yl)cyclobutane-1-carbonitrile]
19 | 0.07 | Cc1cc(C(F)(F)F)cc(O)c1-c1cnc2cn(C34CCC(C3)C4)nc2n1 [Example 42, 2-[2-(1-bicyclo[2.1.1]hexanyl)pyrazolo[3,4-b]pyrazin-6-yl]-3-methyl-5-(trifluoromethyl)phenol]
20 | 0.026 | Cc1cc(C(F)(F)F)cc(O)c1-c1cnc2cn(C34CC(CO)(C3)C4)nc2n1 [Example 43, 2-[2-[3-(hydroxymethyl)-1-bicyclo[1.1.1]pentanyl]pyrazolo[3,4-b]pyrazin-6-yl]-3-methyl-5-(trifluoromethyl)phenol]
21 | 0.061 | Cc1cc(C(F)(F)F)cc(O)c1-c1cnc2cn(C34CCC(C#N)(C3)C4)nc2n1 [Example 47, 4-[6-[2-hydroxy-6-methyl-4-(trifluoromethyl)phenyl]pyrazolo[3,4-b]pyrazin-2-yl]bicyclo[2.1.1]hexane-1-carbonitrile]
22 | 0.065 | Cc1cc(C(F)(F)F)cc(O)c1-c1cnc2cn(C34CC(F)(C3)C4)nc2n1 [Example 48, 2-[2-(3-fluoro-1-bicyclo[1.1.1]pentanyl)pyrazolo[3,4-b]pyrazin-6-yl]-3-methyl-5-(trifluoromethyl)phenol]
23 | 0.031 | Cc1cc(C(F)(F)F)cc(O)c1-c1cnc2cn([C@H]3C[C@H](Cl)C3)nc2n1 [Example 49, 2-(2-((1R,3R)-3-chlorocyclobutyl)-2H-pyrazolo[3,4-b]pyrazin-6-yl)-3-methyl-5-(trifluoromethyl)phenol]
24 | 0.04 | Cc1cc(C(F)(F)F)cc(O)c1-c1cnc2cn([C@H]3C[C@@H]3C)nc2n1 [Example 52, 3-methyl-2-[2-[(1S,2S)-2-methylcyclopropyl]pyrazolo[3,4-b]pyrazin-6-yl]-5-(trifluoromethyl)phenol]
25 | 0.027 | Cc1cc(Cl)cc(O)c1-c1cnc2cn([C@H]3C[C@H](F)C3)nc2n1 [Example 55, 5-chloro-2-(2-((1R,3R)-3-fluorocyclobutyl)-2H-pyrazolo[3,4-b]pyrazin-6-yl)-3-methylphenol]
26 | 0.042 | Cc1cc(Cl)cc(O)c1-c1cnc2cn([C@@H]3[C@@H]4COC[C@@H]43)nc2n1 [Example 56, 2-(2-((1R,5S,6S)-3-oxabicyclo[3.1.0]hexan-6-yl)-2H-pyrazolo[3,4-b]pyrazin-6-yl)-5-chloro-3-methylphenol]
27 | 0.06 | Cc1cc(Cl)cc(O)c1-c1cnc2cn([C@H]3[C@@H]4COC[C@@H]43)nc2n1 [Example 57, 2-(2-((1R,5S,6R)-3-oxabicyclo[3.1.0]hexan-6-yl)-2H-pyrazolo[3,4-b]pyrazin-6-yl)-5-chloro-3-methylphenol]
